Test results taken from PubChem BioAssay AID330 (DTP/NCI, 2004).
Where “and” joins values, the source holds several entries; their conditions need not be identical. Equal entries are not always repeated. Toxic doses and inconclusive results are not listed. How the source made its calls: active means survival T/C of 150% or more; inactive means T/C below 125% in these data.

System: P388 leukemia ip, CD2F1 mice, survival T/C
Assay: NCI In Vivo Anticancer Drug Screen. Data for tumor model P388 Leukemia (intraperitoneal) in CD2F1 (CDF1) mice
Settings: endpoint: median survival time, higher = longer survival
In short: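 Mice carrying the transplanted tumor received test compound or vehicle. Survival was recorded in each group, and the value is the treated-group measurement divided by that of the vehicle-treated control group.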

[1] = dose: 60.0 mg/kg/injection, schedule: Q01DX005 (ip), vehicle: saline with Tween-80
[2] = dose: 120.0 mg/kg/injection, schedule: Q01DX005 (ip), vehicle: saline with Tween-80
[3] = dose: 240.0 mg/kg/injection, schedule: Q01DX005 (ip), vehicle: saline with Tween-80
[4] = dose: 50.0 mg/kg/injection, schedule: Q01DX005 (ip), vehicle: saline with Tween-80
[5] = dose: 100.0 mg/kg/injection, schedule: Q01DX005 (ip), vehicle: saline with Tween-80
[6] = dose: 200.0 mg/kg/injection, schedule: Q01DX005 (ip), vehicle: saline with Tween-80
[7] = dose: 50.0 mg/kg/injection, schedule: Q01DX009 (ip), vehicle: Klucel (hydroxypropylcellulose) (HPC)
[8] = dose: 100.0 mg/kg/injection, schedule: Q01DX009 (ip), vehicle: Klucel (hydroxypropylcellulose) (HPC)
[9] = dose: 200.0 mg/kg/injection, schedule: Q01DX009 (ip), vehicle: Klucel (hydroxypropylcellulose) (HPC)
[10] = dose: 50.0 mg/kg/injection, schedule: Q01DX005 (ip), vehicle: Klucel (hydroxypropylcellulose) (HPC)
[11] = dose: 100.0 mg/kg/injection, schedule: Q01DX005 (ip), vehicle: Klucel (hydroxypropylcellulose) (HPC)
[12] = dose: 200.0 mg/kg/injection, schedule: Q01DX005 (ip), vehicle: Klucel (hydroxypropylcellulose) (HPC)
[13] = dose: 50.0 mg/kg/injection, schedule: Q01DX009 (ip), vehicle: saline
[14] = dose: 100.0 mg/kg/injection, schedule: Q01DX009 (ip), vehicle: saline

Measured: T/C

COc1ccc(C2=C(Cl)C(=O)N(c3cccc(Cl)c3)C(=O)C2(Cl)Cl)cc1
inactive: dose: 100.0 mg/kg/injection, schedule: Q04DX002 (ip), vehicle: Klucel (hydroxypropylcellulose) (HPC) 100 % of control and 86 % of control (2×) | dose: 200.0 mg/kg/injection, schedule: Q04DX002 (ip), vehicle: Klucel (hydroxypropylcellulose) (HPC) 104 % of control and 91 % of control and 97 % of control | dose: 400.0 mg/kg/injection, schedule: Q04DX002 (ip), vehicle: Klucel (hydroxypropylcellulose) (HPC) 100 % of control and 122 % of control and 90 % of control | dose: 600.0 mg/kg/injection, schedule: Q04DX002 (ip), vehicle: Klucel (hydroxypropylcellulose) (HPC) 98 % of control and 109 % of control

CCOC(=O)C(N)CSCSC (stereo not given)
inactive: dose: 50.0 mg/kg/injection, schedule: Q01DX009 (ip), vehicle: water 88 % of control | dose: 100.0 mg/kg/injection, schedule: Q01DX009 (ip), vehicle: water 97 % of control | dose: 200.0 mg/kg/injection, schedule: Q01DX009 (ip), vehicle: water 86 % of control | dose: 400.0 mg/kg/injection, schedule: Q01DX009 (ip), vehicle: water 94 % of control

NC(=O)NC(=O)C(Cc1ccccc1)c1ccccc1 (stereo not given)
inactive: [1] 99 % of control | [2] 95 % of control | [3] 86 % of control

CCOC(=O)C(CCCCn1cnc2ncnc(Cl)c21)(NC(C)=O)C(=O)OCC
inactive: dose: 100.0 mg/kg/injection, schedule: Q01DX001 (ip), vehicle: Klucel (hydroxypropylcellulose) (HPC) 105 % of control | dose: 200.0 mg/kg/injection, schedule: Q01DX001 (ip), vehicle: Klucel (hydroxypropylcellulose) (HPC) 107 % of control | dose: 400.0 mg/kg/injection, schedule: Q01DX001 (ip), vehicle: Klucel (hydroxypropylcellulose) (HPC) 102 % of control

O=C(Nc1cccc(C(F)(F)F)c1)c1cc(Br)cc(Br)c1O
inactive: dose: 6.25 mg/kg/injection, schedule: Q01DX009 (ip), vehicle: Klucel (hydroxypropylcellulose) (HPC) 95 % of control | dose: 12.5 mg/kg/injection, schedule: Q01DX009 (ip), vehicle: Klucel (hydroxypropylcellulose) (HPC) 100 % of control | dose: 25.0 mg/kg/injection, schedule: Q01DX009 (ip), vehicle: Klucel (hydroxypropylcellulose) (HPC) 91 % of control

CC(C)(C)OC(=O)C(N(Cc1ccccc1)Cc1ccccc1)N(Cc1ccccc1)Cc1ccccc1
inactive: [1] 88 % of control | [2] 88 % of control | [3] 86 % of control

CC(=O)C(=O)c1ccc(O)cc1
inactive: dose: 10.0 mg/kg/injection, schedule: Q01DX009 (ip), vehicle: saline with Tween-80 96 % of control | dose: 20.0 mg/kg/injection, schedule: Q01DX009 (ip), vehicle: saline with Tween-80 94 % of control | dose: 40.0 mg/kg/injection, schedule: Q01DX009 (ip), vehicle: saline with Tween-80 99 % of control

N#Cc1c(C(=O)NN)c2c(-c3ccc4ccccc4c3)n[nH]c(=O)c2[nH]c1=O
inactive: [4] 91 % of control | [5] 95 % of control | [6] 86 % of control

CSC(=N\N=C(/C)c1ccc(Br)cc1)/N=C/N(C)C
inactive: [1] 100 % of control | [2] 102 % of control | [3] 102 % of control

CN(C)c1nc(N(C)C)nc(N(C)C=O)n1
inactive: dose: 100.0 mg/kg/injection, schedule: Q01DX001 (ip), vehicle: saline 99 % of control | dose: 200.0 mg/kg/injection, schedule: Q01DX001 (ip), vehicle: saline 97 % of control | dose: 400.0 mg/kg/injection, schedule: Q01DX001 (ip), vehicle: saline 100 % of control

COc1cc2c(cc1C1CCCCCc3c1[nH]c1ccccc31)C1CCCCC1N2C (stereo not given)
inactive: dose: 12.5 mg/kg/injection, schedule: Q01DX001 (ip), vehicle: distilled water + Tween-80 100 % of control | dose: 25.0 mg/kg/injection, schedule: Q01DX001 (ip), vehicle: distilled water + Tween-80 100 % of control | dose: 50.0 mg/kg/injection, schedule: Q01DX001 (ip), vehicle: distilled water + Tween-80 100 % of control | dose: 100.0 mg/kg/injection, schedule: Q01DX001 (ip), vehicle: distilled water + Tween-80 95 % of control | dose: 200.0 mg/kg/injection, schedule: Q01DX001 (ip), vehicle: distilled water + Tween-80 91 % of control

NNc1ncnc2ccc(Cl)cc12
inactive: [7] 111 % of control | [8] 111 % of control | [9] 113 % of control

CC(SCCCCCCSC(C)C(=O)O)C(=O)O (stereo not given)
inactive: [10] 110 % of control | [11] 97 % of control | [12] 95 % of control

CC(C)=NOCc1ccccc1
inactive: dose: 2.5 mg/kg/injection, schedule: Q01DX009 (ip), vehicle: Klucel (hydroxypropylcellulose) (HPC) 119 % of control | dose: 5.0 mg/kg/injection, schedule: Q01DX009 (ip), vehicle: Klucel (hydroxypropylcellulose) (HPC) 120 % of control | dose: 10.0 mg/kg/injection, schedule: Q01DX009 (ip), vehicle: Klucel (hydroxypropylcellulose) (HPC) 117 % of control | [7] 94 % of control | [8] 98 % of control

O=S(=O)(O)c1ccc2c(N=Nc3ccccc3[As](=O)(O)O)c(O)c(S(=O)(=O)O)cc2c1
inactive: dose: 50.0 mg/kg/injection, schedule: Q01DX009 (ip), vehicle: saline with Tween-80 104 % of control | dose: 100.0 mg/kg/injection, schedule: Q01DX009 (ip), vehicle: saline with Tween-80 113 % of control

COc1c2occc2c(N=Cc2ccc([N+](=O)[O-])cc2)c2ccc(=O)oc12
inactive: dose: 0.38 mg/kg/injection, schedule: Q01DX005 (ip), vehicle: saline with Tween-80 99 % of control | dose: 0.75 mg/kg/injection, schedule: Q01DX005 (ip), vehicle: saline with Tween-80 98 % of control | dose: 1.5 mg/kg/injection, schedule: Q01DX005 (ip), vehicle: saline with Tween-80 90 % of control | dose: 6.25 mg/kg/injection, schedule: Q01DX005 (ip), vehicle: saline with Tween-80 87 % of control | [5] 87 % of control | [6] 98 % of control

CC(C)(C)COC(=O)NC1CCC2CCCCC2C1 (stereo not given)
inactive: [13] 88 % of control | [14] 97 % of control | dose: 200.0 mg/kg/injection, schedule: Q01DX009 (ip), vehicle: saline 101 % of control

CCCCCCC1N=C(N)N=C(N)N1c1ccc(Cl)cc1 (stereo not given)
inactive: dose: 6.25 mg/kg/injection, schedule: Q01DX005 (ip), vehicle: Klucel (hydroxypropylcellulose) (HPC) 100 % of control | dose: 12.5 mg/kg/injection, schedule: Q01DX005 (ip), vehicle: Klucel (hydroxypropylcellulose) (HPC) 110 % of control | dose: 25.0 mg/kg/injection, schedule: Q01DX005 (ip), vehicle: Klucel (hydroxypropylcellulose) (HPC) 106 % of control

COc1ccc(C(CC(=O)N(CCCl)CCCl)CC(=O)N(CCCl)CCCl)cc1
inactive: dose: 100.0 mg/kg/injection, schedule: Q01DX001 (ip), vehicle: suspension in saline 108 % of control | dose: 200.0 mg/kg/injection, schedule: Q01DX001 (ip), vehicle: suspension in saline 119 % of control

COC(=O)CC1(O)C(=O)OCc2c1cc1n(c2=O)Cc2c-1nc1ccccc1c2OC (stereo not given)
active: dose: 12.5 mg/kg/injection, schedule: Q01DX009 (ip), vehicle: saline 167 % of control | [13] 194 % of control | [14] 150 % of control and 184 % of control
inactive: dose: 100.0 mg/kg/injection, schedule: Q01DX009 (ip), vehicle: suspension in saline 86 % of control

Cc1ccc(C)c(NC(=O)Nc2ccc(C(=O)O)cc2)c1
inactive: [7] 105 % of control | [8] 105 % of control | [9] 102 % of control

CCc1nc(N)nc(N)c1-c1ccc(N)cc1
inactive: dose: 12.5 mg/kg/injection, schedule: Q01DX005 (ip), vehicle: saline with Tween-80 104 % of control | dose: 25.0 mg/kg/injection, schedule: Q01DX005 (ip), vehicle: saline with Tween-80 100 % of control | [4] 98 % of control and 99 % of control

Cc1c([N+](=O)[O-])c(=O)oc2c1ccc1occc(=O)c12
inactive: [4] 96 % of control | [5] 89 % of control | [6] 90 % of control

Cc1nc(C#N)c(=N)n(O)c1Cl
inactive: dose: 6.25 mg/kg/injection, schedule: Q01DX009 (ip), vehicle: saline with Tween-80 99 % of control and 102 % of control and 123 % of control | dose: 12.5 mg/kg/injection, schedule: Q01DX009 (ip), vehicle: saline with Tween-80 104 % of control and 106 % of control | dose: 25.0 mg/kg/injection, schedule: Q01DX009 (ip), vehicle: saline with Tween-80 110 % of control and 113 % of control

CC1CN1C(=O)Nc1cccc(Cl)c1 (stereo not given)
inactive: [13] 100 % of control | [14] 102 % of control

COc1ccc2c(c1)[C@H]1[C@H]([C@H]3O[C@@H]1c1ccccc13)S(=O)N2 (stereo not given in full)
inactive: [10] 95 % of control | [11] 96 % of control | [12] 92 % of control
